“And” between values parts separate entries of the source, which are not always exact repeats. Equal entries are not always repeated.
Key:
[1] = molecular target: HIS-Keap1 full length / Biotin-Nrf2 (16-mer) (Homo sapiens, UniProt Q14145); test: biochemical
[2] = tested on: NQO1 activation in BEAS-2B cells; test: BEAS-2B cellular MTT assay of NQO1 activation, 0.3% HSA; format: cell-based
Method: (§1) The growth rate of the BEAS-2B cells changed based on the lot of BEGM SingleQuots in the BEGM media. The cell growth rate was determined for each lot of SingleQuots. Ideally, cells were thawed into media with the new lot of SingleQuots and grown for two passages before testing; however, growing an active culture in the new lot of media for two to three passages before testing was also acceptable. Until the cell growth rate was determined, cells were seeded at different densities (cells/cm^2) in multiple tissue culture flasks in order to avoid the cells becoming more than 70% confluent. Cells should not go above 70% confluent as the cells differentiate when they become confluent. After the cells were grown in the new lot of media as described above, the number of cells per well needed to seed in the collagen plates was determined by seeding different numbers of cells per well and incubating for 48 hours. Cell confluency was checked after 48 hours and a cell number that results in just below to just above confluency was chosen for future plate seeding. Cell confluency in the assay plate was 95-100% confluent after 48 hours.
(§2) Cell media consists of BEBM basal media with the BEGM SingleQuots added. SingleQuots vials were thawed in the tissue culture hood, and GA-1000 (Gentamicin-Amphotericin) was not added.
(§3) If complete media was to be used immediately, BEBM basal media was warmed to room temperature in the hood, but not as high as 37° C. When the media was made for future use, SingleQuots were added to cold BEBM. One at a time, the SingleQuots components (except GA-1000) were added to the BEBM media. After removal of each component from the vial, the vial was rinsed with 0.5-1 mL of BEBM (depending on the volume the vial could hold) and added to the bottle of BEBM. Once all components were added, the label that comes with the SingleQuots kit was put on the bottle of media and the date was recorded. The bottle of media was mixed by gentle shaking. The media was not filtered. This media was stored at 4° C., with any leftover media disposed of one month after the date the SingleQuots were added.
(§4) BEAS-2B Cell Splitting Protocol:
(§5) First, Trypsin was warmed to 37° C. in the water bath. The media was then warmed to room temperature by letting it sit in the tissue culture hood, but not as high as 37° C. The media was aspirated from flask(s) and the flask(s) were washed with PBS. From 1 to 1.5 mL of warm trypsin were added to each flask and incubated at 37° C. until cells came off the flask on their own (~8-10 minutes), with no vigorous tapping on the flask to detach the cells.
(§6) Media was added to each flask to a total volume of 8-10 mL per flask and transferred to 15 mL conical tube(s). The cells were spun down at 120 g for 5 minutes, level 5 brake. The cells can be spun down between 100 and 150 g. Next the media was aspirated and the cell pellet was resuspended in fresh media by pipetting up and down and flicking the tube side to side. Any clumps of cells that remained were allowed to settle to the bottom of the tube before the top suspension was transferred into another tube, leaving about 1 mL of media in the original tube. The 1 mL of media and cell clumps were mixed with a single channel p1000 pipette, and any remaining clumps were removed before adding the cells in suspension to the other tube. The suspension was mixed with a pipette, an aliquot was removed, and the cells were counted. The amount of cells/cm^2 desired was calculated and the required volume of cells was added to tissue culture flasks. For example, use of SingleQuots with ~6000 cells/cm^2 was appropriate for a three day incubation and ~3000 cells/cm^2 for a five day incubation. Optimal cell density differed depending on lot of SingleQuots. The flasks were incubated at 37° C. in 5% CO2.
(§7) Day One: Seeding BEAS-2B Cells in Collagen Plates:
(§8) Plate(s) were either seeded with 0.3% or 0% HSA. While the protocol was similar for both conditions any differences are noted herein below. […]

[3] = tested on: NQO1 activation in BEAS-2B cells; test: BEAS-2B cellular MTT assay of NQO1 activation, 0% HSA; format: cell-based
Method: as §1, §2, §3, §4, §5, §6, §7, §8

[4] = Homo sapiens, BEAS+, read-out: BEAS+ EC50
[5] = Homo sapiens, serum free, read-out: BEAS EC50 (nM) serum free
[6] = serum free, read-out: BEAS EC50 (nM) serum free
[7] = BEAS+ W, read-out: BEAS+ W EC50
[8] = Homo sapiens, BEAS+ W, read-out: BEAS+ W EC50
[9] = Homo sapiens, Serum Free W, read-out: BEAS EC50 (nM) Serum Free W
[10] = Serum Free W, read-out: BEAS EC50 (nM) Serum Free W

Sequence of HIS-Keap1 full length / Biotin-Nrf2 (16-mer) (Q14145 whole entry): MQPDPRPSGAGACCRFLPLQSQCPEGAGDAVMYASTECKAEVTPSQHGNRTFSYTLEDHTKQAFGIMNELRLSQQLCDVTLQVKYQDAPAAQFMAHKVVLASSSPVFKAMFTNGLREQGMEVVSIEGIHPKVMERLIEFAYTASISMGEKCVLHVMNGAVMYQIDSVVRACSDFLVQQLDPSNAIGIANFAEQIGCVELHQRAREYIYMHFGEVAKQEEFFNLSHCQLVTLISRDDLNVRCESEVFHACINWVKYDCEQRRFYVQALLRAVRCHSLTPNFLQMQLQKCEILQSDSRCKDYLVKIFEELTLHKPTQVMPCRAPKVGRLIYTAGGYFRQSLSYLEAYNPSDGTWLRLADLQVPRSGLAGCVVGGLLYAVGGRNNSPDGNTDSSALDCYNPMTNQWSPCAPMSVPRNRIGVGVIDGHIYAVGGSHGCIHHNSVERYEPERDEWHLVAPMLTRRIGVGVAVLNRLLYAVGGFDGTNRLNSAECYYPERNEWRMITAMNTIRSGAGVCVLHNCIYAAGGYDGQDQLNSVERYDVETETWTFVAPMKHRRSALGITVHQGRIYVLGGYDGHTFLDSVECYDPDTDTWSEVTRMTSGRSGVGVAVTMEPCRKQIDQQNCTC

| Compound | EC50 [2, 4] [nM] | EC50 [3, 5] [nM] | EC50 [3, 9] [nM] | EC50 [3, 10] [nM] | other results |
| --- | --- | --- | --- | --- | --- |
| Cc1c2ccc3c1nnn3CCCCCCc1ccc3c(c1)cc(n3C)C(=O)N1CCc3ccc(cc3C1)[C@@H]2[C@@H](C)C(=O)O [Compound 28] | – | – | – | – | IC50 [1]: 0.4 nM and 0.5 nM |
| Cc1nc2ncc1C(CC(=O)O)c1ccc3c(c1)CN(CC3)C(=O)c1c(F)cc(cc1F)OCCCCO2 (stereo not shown) [Compound 197] | – | – | – | – | IC50 [1]: 164 nM and 148 nM |
| O=C(O)CC1c2ccc3c(c2)CN(CC3)C(=O)c2cccc(c2)OCCCCCc2nnc3cc1ccn23 (stereo not shown) [Compound 416] | – | – | – | – | IC50 [1]: 2420 nM and 348 nM |
| COc1cc2ccc1C(=O)N1CCc3ccc(cc3C1)C(CC(=O)O)c1ccc3c(nnn3CCCCCC2)c1C (stereo not shown) [Compound 188] | 15.3 | 9.4 | – | – | EC50 ([2]; BEAS+, read-out: BEAS+ EC50): 14.9 nM; EC50 [3, 6]: 9.1 nM |
| Cc1c2ccc3c1nnn3CCCCCCOc1ccc(c(F)c1)C(=O)N1CCc3ccc(cc3C1)[C@@H]2CC(=O)O [Compound 257] | 228 | 7.4 | – | – | EC50 ([2]; BEAS+, read-out: BEAS+ EC50): 146 nM; EC50 [3, 6]: 4.3 nM |
| Cc1ccc2cc1OC/C=C/CCn1nnc3cc(ccc31)C(CC(=O)O)c1ccc3c(c1)CN(CC3)C2=O (stereo not shown) [Compound 418] | – | – | – | – | IC50 [1]: 390 nM and 381 nM |
| O=C(O)CC1c2ccc3c(c2)CN(CC3)C(=O)c2cccc(c2)OCCOCCn2nnc3cc1ccc32 (stereo not shown) [Compound 410] | – | – | – | – | IC50 [1]: 1050 nM and 1900 nM |
| Cc1c2ccc3c1nnn3CCCCCCOc1ccc(c(F)c1)C(=O)N1CCc3ccc(cc3C1)C2CC(=O)O (stereo not shown) [Compound 317] | 11.9 | 0.6 | – | – | – |
| COc1cc2ncc1[C@@H](CC(=O)O)c1ccc3c(c1)CN(CC3)C(=O)c1ccc(cc1)CCCCCO2 [Compound 73] | – | – | 287 | 373 | EC50 [2, 7]: 590 nM; EC50 [2, 8]: 464 nM |
| O=C(O)CC1c2ccc3c(c2)CN(CC3)C(=O)c2ccc(cc2)OCCCCCn2nnc3cc1ccc32 (stereo not shown) [Compound 334] | 898 | 547 | – | – | – |
| Cc1cc2ncc1[C@@H](C(C)(C)C(=O)O)c1ccc3c(c1)CN(CC3)C(=O)c1ccc(cc1)CCCCCO2 [Compound 54] | – | – | 0.2 | 0.1 | – |
| Cc1cc2ncc1[C@@H]([C@H](C)C(=O)O)c1ccc3c(c1)CN(CC3)C(=O)c1ccc(cc1)CCCCCO2 [Compound 84] | – | – | 7.4 | 6.2 | EC50 [2, 7]: 30 nM; EC50 [2, 8]: 26.3 nM |
| Cc1cc2cnc1OCCCCCc1ccc(cc1)C(=O)N1CCc3ccc(cc3C1)[C@@H]2[C@@H](C)C(=O)O [Compound 72] | – | – | > 1000 | 1930 | EC50 [2, 7]: 7720 nM; EC50 [2, 8]: 9870 nM |
| Cc1c2ccc3c1nnn3CCCCCCOc1ccc(c(F)c1)C(=O)N1CCc3ccc(cc3C1)[C@H]2[C@@H](C)C(=O)O [Compound 152] | > 10000 | > 10000 | – | – | – |
| C[C@@H](C(=O)O)[C@H]1c2ccc(nc2)OCCCCCc2ccc(cc2)C(=O)N2CCc3ccc1cc3C2 [Compound 57] | – | – | – | 0.3 | EC50 [2, 7]: 0.6 nM |
| Cc1c2ccc3c1nnn3CCCCCCc1ccc(cc1)C(=O)N1CCc3ccc(cc3C1)[C@@H]2[C@@H](C)C(=O)O [Compound 132] | – | – | > 1000 | – | EC50 [2, 8]: > 10000 nM |
| CC(C)(C(=O)O)C1c2ccc3c(c2)CN(CC3)C(=O)c2ccc(cc2)OCCCCCCn2nnc3cc1ccc32 (stereo not shown) [Compound 287] | 112 | 3.1 | – | – | – |
| Cc1cc2ncc1[C@H](C(C)(C)C(=O)O)c1ccc3c(c1)CN(CC3)C(=O)c1ccc(cc1)CCCCCO2 [Compound 53] | – | – | 8.7 | 12.3 | EC50 [2, 7]: 47.8 nM; EC50 [2, 8]: 38.5 nM |

From patent publication US12692274B2, “Tetrahydroisoquinoline derivatives for the treatment of red blood disorders and inflammatory diseases” (Sanofi, priority 2020, dated 2026)
